Publication PMC8508980, “Design, Synthesis and Anticancer Profile of New 4-(1H-benzo[d]imidazol-1-yl)pyrimidin-2-amine-Linked Sulfonamide Derivatives with V600EBRAF Inhibitory Effect” (International Journal of Molecular Sciences, 2021)

Tests used:
Assay in all cases: NCI 60 cell line screen
Assay type in all cases: cell-based
HCT-116 = settings: Homo sapiens; HCT-116, Colon Cancer; read-out: Percent growth
Protocol: (§1) Anticancer profiling over a panel of 60 cancer cell lines was carried out at the National Cancer Institute (NCI), Bethesda, Maryland, USA, https://dtp.cancer.gov/discovery_development/nci-60/methodology.htm (Last visit 22 September 2021), using the standard procedure (detailed procedure is located in the Supplementary Information page 50 s).
(§2) NCI standard procedure for 60 cell lines assay
(§3) The human tumor cell lines of the cancer screening panel are grown in RPMI 1640 mediu m containing 5% fetal bovine serum and 2 mM L-glutamine. For a typical screening experiment, cells are inoculated into 96 well microtiter plates in 100 μL at plating densities ranging from 5,000 to 40,000 cells/well depending on the doubling time of individual cell lines. After cell inoculation, the microtiter plates are incubated at 37° C, 5 % CO2, 95 % air and 100 % relative humidity for 24 h prior to addition of experimental drugs.
(§4) After 24 h, two plates of each cell line are fixed in situ with TCA, to represent a measurement of the cell population for each cell line at the time of drug addition (Tz). Experimental drugs are solubilized in dimethyl sulfoxide at 400-fold the desired final maximum test concentration (10 µM) and stored frozen prior to use. At the time of drug addition, an aliquot of frozen concentrate is thawed and diluted to twice the desired final maximum test concentration with co mp lete medium containing 50 μg/ml gentamicin. Additional four, 10-fold or ½ log serial dilutions are made to provide a total of five drug concentrations plus control. Aliquots of 100 μl of these different drug dilutions are added to the appropriate microtiter wells already containing 100 μl of medium, resulting in the required final drug concentrations.
(§5) Following drug addition, the plates are incubated for an additional 48 h at 37°C, 5 % CO2, 95 % air, and 100 % relative humidity. For adherent cells, the assay is terminated by the addition of cold TCA. Cells are fixed in situ by the gentle addition of 50 μl of cold 50 % (w/v) TCA (final concentration, 10 % TCA) and incubated for 60 minutes at 4°C. The supernatant is discarded, and the plates are washed five times with tap water and air dried. Sulforhodamine B (SRB) solution (100 μl) at 0.4 % (w/v) in 1 % acetic acid is added to each well, and plates are incubated for 10 minutes at room temperature. After staining, unbound dye is removed by washing five times with 1 % acetic acid and the plates are air dried. Bound stain is subsequently solubilized with 10 mM trizma base, and the absorbance is read on an automated plate reader at a wavelength of 515 nm. For suspension cells, the methodology is the same except that the assay is terminated by fixing settled cells at the bottom of the wells by g ently adding 50 μl of 80 % TCA (final concentration, 16 % TCA). Using the seven absorbance measurements [time zero, (Tz), control growth, (C), and test growth in the presence of drug at the five concentration levels (Ti)], the percentage growth is calculated at each of the drug concentrations levels. Percentage growth inhibition is calculated as:
(§6) [(Ti-Tz)/(C-Tz)] x 100 for concentrations for which Ti>/=Tz
(§7) [(Ti-Tz)/Tz] x 100 for concentrations for which Ti<Tz.
(§8) Three dose response parameters are calculated for each experimental agent. Growth inhibition of […]
(§9) resulting in a 50% reduction in the net protein increase (as measured by SRB staining) in control cells during the drug incubation. The drug concentration resulting in total growth inhibition […]
(§10) (TGI) is calculated from Ti = Tz.

HOP-62 = settings: Homo sapiens; HOP-62, Non-Small Cell Lung Cancer; read-out: Percent growth
Protocol: as §1, §2, §3, §4, §5, §6, §7, §8, §9, §10

SN12C = settings: Homo sapiens, Renal Cancer, read-out: Percent growth
Protocol: as §1, §2, §3, §4, §5, §6, §7, §8, §9, §10

SK-OV-3 = settings: Homo sapiens; SK-OV-3, Ovarian Cancer; read-out: Percent growth
Protocol: as §1, §2, §3, §4, §5, §6, §7, §8, §9, §10

CCRF-CEM = settings: Homo sapiens, Leukemia, read-out: Percent growth
Protocol: as §1, §2, §3, §4, §5, §6, §7, §8, §9, §10

COLO 205 = settings: Homo sapiens; COLO 205, Colon Cancer; read-out: Percent growth
Protocol: as §1, §2, §3, §4, §5, §6, §7, §8, §9, §10

HS 578T = settings: Homo sapiens, Breast Cancer, read-out: Percent growth
Protocol: as §1, §2, §3, §4, §5, §6, §7, §8, §9, §10

SW-620 = settings: Homo sapiens; SW-620, Colon Cancer; read-out: Percent growth
Protocol: as §1, §2, §3, §4, §5, §6, §7, §8, §9, §10

TK-10 = settings: Homo sapiens; TK-10, Renal Cancer; read-out: Percent growth
Protocol: as §1, §2, §3, §4, §5, §6, §7, §8, §9, §10

MCF7 = settings: Homo sapiens; MCF7, Breast Cancer; read-out: Percent growth
Protocol: as §1, §2, §3, §4, §5, §6, §7, §8, §9, §10

SNB-19 = settings: Homo sapiens; SNB-19, CNS-Cancer; read-out: Percent growth
Protocol: as §1, §2, §3, §4, §5, §6, §7, §8, §9, §10

MDA-MB-435 = settings: Homo sapiens; MDA-MB-435, Melanoma; read-out: Percent growth
Protocol: as §1, §2, §3, §4, §5, §6, §7, §8, §9, §10

A549/ATCC = settings: Homo sapiens, Non-Small Cell Lung Cancer, read-out: Percent growth
Protocol: as §1, §2, §3, §4, §5, §6, §7, §8, §9, §10

A498 = settings: Homo sapiens; A498, Renal Cancer; read-out: Percent growth
Protocol: as §1, §2, §3, §4, §5, §6, §7, §8, §9, §10

OVCAR-3 = settings: Homo sapiens; OVCAR-3, Ovarian Cancer; read-out: Percent growth
Protocol: as §1, §2, §3, §4, §5, §6, §7, §8, §9, §10

SF-268 = settings: Homo sapiens; SF-268, CNS-Cancer; read-out: Percent growth
Protocol: as §1, §2, §3, §4, §5, §6, §7, §8, §9, §10

DU-145 = settings: Homo sapiens; DU-145, Prostate Cancer; read-out: Percent growth
Protocol: as §1, §2, §3, §4, §5, §6, §7, §8, §9, §10

SMILES	activity at 10 µM (HCT-116) [%]	activity at 10 µM (HOP-62) [%]	activity at 10 µM (SN12C) [%]	activity at 10 µM (SK-OV-3) [%]	activity at 10 µM (CCRF-CEM) [%]	activity at 10 µM (COLO 205) [%]	activity at 10 µM (HS 578T) [%]	activity at 10 µM (SW-620) [%]	activity at 10 µM (TK-10) [%]	activity at 10 µM (MCF7) [%]	activity at 10 µM (SNB-19) [%]	activity at 10 µM (MDA-MB-435) [%]	activity at 10 µM (A549/ATCC) [%]	activity at 10 µM (A498) [%]	activity at 10 µM (OVCAR-3) [%]	activity at 10 µM (SF-268) [%]	activity at 10 µM (DU-145) [%]
O=S(=O)(NCCCNc1nccc(-n2cnc3ccccc32)n1)c1ccc(Br)cc1 [12k, N-(3-((4-(1H-benzo [d]imidazol-1-yl)pyrimidin-2-yl)amino)propyl)-4-bromo benzenesulfonamide]	90.3	107	89.2	109	83	108	90	106	97.8	86.7	98.6	92.6	95	77.2	104	91.2	96.5
COc1ccc(S(=O)(=O)NCCCNc2nccc(-n3cnc4ccccc43)n2)cc1 [12m, N-(3-((4-(1H-benzo [d]imidazol-1-yl)pyrimidin-2-yl)amino)propyl)-4-methoxy benzenesulfonamide]	89.9	94.8	92.4	96.2	91.4	108	84.8	104	103	85.1	100	98.7	106	81.9	105	91.6	100
O=S(=O)(NCCNc1nccc(-n2cnc3ccccc32)n1)c1ccc(Br)cc1 [12d, N-(2-((4-(1H-benzo [d]imidazol-1-yl)pyrimidin-2-yl)amino)ethyl)-4-bromobenzenesulfonamide]	99.8	87.2	91.5	99.9	101	107	85.7	110	103	78.4	101	108	100	76.3	103	91.2	99.9
COc1ccc(S(=O)(=O)NCCNc2nccc(-n3cnc4ccccc43)n2)cc1 [12f, N-(2-((4-(1H-benzo [d]imidazol-1-yl)pyrimidin-2-yl)amino)ethyl)-4-methoxy benzenesulfonamide]	98	94.6	88.5	97.5	102	99.8	84.1	103	92.5	86.2	95.3	96.6	94.6	82.9	103	86.7	99.9
O=S(=O)(NCCCNc1nccc(-n2cnc3ccccc32)n1)c1ccc(Cl)cc1 [12j, N-(3-((4-(1H-benzo [d]imidazol-1-yl)pyrimidin-2-yl)amino)propyl)-4-chloro benzenesulfonamide]	94.1	101	91.7	117	91.7	110	105	110	104	89	104	95.5	99	73	107	98.2	100
O=S(=O)(NCCNc1nccc(-n2cnc3ccccc32)n1)c1ccc(F)cc1 [12b, N-(2-((4-(1H-benzo [d]imidazol-1-yl)pyrimidin-2-yl)amino)ethyl)-4-fluorobenzenesulfonamide]	83.6	90.9	89.7	102	93.5	102	85.5	100	97.8	87.7	93	97.7	91.3	80.7	106	88.2	91.5
O=S(=O)(NCCNc1nccc(-n2cnc3ccccc32)n1)c1ccccc1 [12a, N-(2-((4-(1H-benzo [d]imidazol-1-yl)pyrimidin-2-yl)amino)ethyl)benzenesulfonamide]	94.6	90.7	85.1	101	96	101	93.5	112	104	89.3	99.6	109	104	88.6	109	94.1	109
O=S(=O)(NCCCNc1nccc(-n2cnc3ccccc32)n1)c1ccc(C(F)(F)F)cc1 [12l, N-(3-((4-(1H-benzo [d]imidazol-1-yl)pyrimidin-2-yl)amino)propyl)-4-(trifluoromethyl) benzenesulfonamide]	65.6	77.3	80.5	80.3	51.9	78.2	58.6	99.5	81.5	65.5	83.4	72.1	79	55.3	81.2	66.5	83.5
